The values that follow come from publication PMC6071684, “Defining the hydrophobic interactions that drive competence stimulating peptide (CSP)-ComD binding in Streptococcus pneumoniae” (Beilstein Journal of Organic Chemistry, 2018).

One assay concerns the target ComD2 receptor (Streptococcus pneumoniae serotype 4, UniProt A0A0H2US84). The assay can be described thus: cell-based. As to the method:
(§1) To assess QS modulation, we utilized the β-gal reporter strains, constructed by Lau and co-worker. In these strains the lacZ gene is under the control of QS (pcomX). Thus, upon QS activation, ComE will bind pcomX and transcribe lacZ (in addition to upregulation of ComX). ComD modulation can therefore be quantified by measuring β-gal activity. The peptides were first screened for their ability to activate/inhibit the ComD1 and ComD2 receptors at high concentration (10 µM).
(§2) To examine the ability of the synthesized CSP analogs to modulate the ComD receptors, and thus the QS circuit in S. pneumoniae, β-galactosidase assays were performed using D39pcomX::lacZ (group I) and TIGR4pcomX::lacZ (group II) reporter strains as described in [19].
(§3) Bacterial growth conditions. Bacteria from a freezer stock were grown as described in [19]. Briefly, the bacteria were streaked into a THY agar plate supplemented with 5% donor horse serum and chloramphenicol at a final concentration of 4 µg/mL. The plate was incubated for 8 h in a CO2 incubator (37 °C with 5% CO2). Fresh colonies (single colony for D39pcomX::lacZ; multiple colonies for TIGR4pcomX::lacZ) were picked into sterilized cultural tubes containing 5 mL of THY broth supplemented with chloramphenicol at a final concentration of 4 µg/mL and the cultures were incubated in a CO2 incubator overnight (15 h). Overnight cultures were then diluted (1:50 for D39pcomX::lacZ; 1:10 for TIGR4pcomX::lacZ) with THY and the resulting solution was incubated in a CO2 incubator for 3–4 hours, until the bacteria reached early exponential stage (0.30–0.35 for D39pcomX::lacZ; 0.20–0.25 for TIGR4pcomX::lacZ) as determined by using a plate reader.
(§4) β-Galactosidase assay. Activation assays. […] Briefly, an initial activation screening was performed at high concentration (10 µM) for all CSP analogs. 2 µL of 1 mM solution of CSP analogs in dimethyl sulfoxide (DMSO) were added in triplicate to a clear 96-well microtiter plate. […] 2 µL of DMSO was added in triplicate and served as the negative control for both groups. Then, 198 µL of bacterial culture was added to each well containing CSP and analogs, the plate was incubated at 37 °C for 30 minutes, and the OD600nm was measured. In order to measure the β-galactosidase activity in the pneumococcal culture, the cells were lysed by incubating the culture for 30 minutes at 37 °C with 20 µL of 0.1% Triton X-100. In a new plate, 100 µL of Z-buffer solution (60.2 mM Na2HPO4, 45.8 mM NaH2PO4, 10 mM KCl, and 1.0 mM MgSO4 in 18 MΩ H2O; pH was adjusted to 7.0 and the buffer was sterilized before use) containing 2-nitrophenyl-β-D-galactopyranoside (ONPG) at a final concentration of 0.4 mg/mL was added, followed by 100 µL of lysate, and the plate was incubated for 3 hours at 37 °C. The reaction was stopped by adding 50 µL of 1 M sodium carbonate solution, and the OD420nm and OD550nm were measured using a plate reader. […] For calculation of Miller units, please see data analysis below.
(§5) Analysis of activation/inhibition data. Miller units were calculated using the following formula: […]
(§6) Abs420 is the absorbance of ortho-nitrophenol (ONP). Abs550 is the scatter from cell debris, which, when multiplied by 1.75 approximates the scatter observed at 420 nm. t is the duration of incubation with ONPG in minutes, v is volume of lysate in milliliters, and Abs600 reflects cell density.

The target of a further assay is ComD1 receptor (Streptococcus pneumoniae serotype 2, UniProt A0A0H2ZM50). Nature of the assay: cell-based. As to the method: as §1, §2, §3, §4, §5, §6
Chain of ComD1 receptor (A0A0H2ZM50 entry or part of it): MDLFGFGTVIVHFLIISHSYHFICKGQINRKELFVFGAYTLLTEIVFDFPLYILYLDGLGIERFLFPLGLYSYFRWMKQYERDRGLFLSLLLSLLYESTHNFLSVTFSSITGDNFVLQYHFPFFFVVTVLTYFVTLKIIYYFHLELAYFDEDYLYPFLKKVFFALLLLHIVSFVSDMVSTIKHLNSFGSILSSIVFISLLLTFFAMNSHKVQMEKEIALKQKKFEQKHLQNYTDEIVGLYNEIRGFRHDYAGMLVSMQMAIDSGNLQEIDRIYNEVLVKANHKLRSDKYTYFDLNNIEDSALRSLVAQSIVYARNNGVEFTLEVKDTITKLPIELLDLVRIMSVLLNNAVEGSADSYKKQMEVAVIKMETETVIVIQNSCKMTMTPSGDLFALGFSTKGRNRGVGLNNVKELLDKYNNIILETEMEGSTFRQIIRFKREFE
Assay [1] has as its target ComD1 receptor (S. pneumoniae (endogenous in D39pcomX::lacZ)).

Where a SMILES comes first, the peptide text is derived from it. [ ]: non-standard residue; d: D form. Phg = N[C@H](C(=O)O)c1ccccc1; Nle = CCCC[C@H](N)C(=O)O; Nva = CCC[C@H](N)C(=O)O

Chain of ComD2 receptor (A0A0H2US84 entry or part of it): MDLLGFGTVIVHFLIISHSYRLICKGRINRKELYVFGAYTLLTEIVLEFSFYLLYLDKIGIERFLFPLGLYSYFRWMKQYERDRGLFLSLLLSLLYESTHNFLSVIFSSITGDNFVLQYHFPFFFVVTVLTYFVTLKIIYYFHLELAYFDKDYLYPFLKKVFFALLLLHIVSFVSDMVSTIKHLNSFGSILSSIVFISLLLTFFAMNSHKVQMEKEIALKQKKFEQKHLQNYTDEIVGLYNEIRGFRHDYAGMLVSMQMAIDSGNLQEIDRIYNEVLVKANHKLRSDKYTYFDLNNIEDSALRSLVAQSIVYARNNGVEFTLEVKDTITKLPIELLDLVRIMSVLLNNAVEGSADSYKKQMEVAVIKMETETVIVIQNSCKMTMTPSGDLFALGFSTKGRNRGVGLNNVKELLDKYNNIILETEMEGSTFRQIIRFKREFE

For `CC[C@H](C)[C@H](NC(=O)[C@H](Cc1ccccc1)NC(=O)[C@H](CC(=O)O)NC(=O)[C@H](CCCNC(=N)N)NC(=O)[C@H](Cc1ccccc1)NC(=O)[C@@H](NC(=O)[C@H](CCCCN)NC(=O)[C@H](CO)NC(=O)[C@H](CC(C)C)NC(=O)[C@H](CCCNC(=N)N)NC(=O)[C@H](CCSC)NC(=O)[C@@H](N)CCC(=O)O)c1ccccc1)C(=O)N[C@@H](CC(C)C)C(=O)N[C@@H](CCC(N)=O)C(=O)N[C@@H](CCCNC(=N)N)C(=O)N[C@@H](CCCCN)C(=O)N[C@@H](CCCCN)C(=O)O` [CSP1-F7FG] (H-EMRLSK[Phg]FRDFILQRKK-OH; N-terminus assumed), the EC50 at ComD2 receptor is 828 nM; at ComD1 receptor, 81.3 nM. As to `CC[C@H](C)[C@H](NC(=O)[C@H](Cc1ccccc1)NC(=O)[C@H](CC(=O)O)NC(=O)[C@H](CCCNC(=N)N)NC(=O)[C@H](Cc1ccccc1)NC(=O)[C@H](CCc1ccccc1)NC(=O)[C@H](CCCCN)NC(=O)[C@H](CO)NC(=O)[C@H](CC(C)C)NC(=O)[C@H](CCCNC(=N)N)NC(=O)[C@H](CCSC)NC(=O)[C@@H](N)CCC(=O)O)C(=O)N[C@@H](CC(C)C)C(=O)N[C@@H](CCC(N)=O)C(=O)N[C@@H](CCCNC(=N)N)C(=O)N[C@@H](CCCCN)C(=O)N[C@@H](CCCCN)C(=O)O` [CSP1-F7HF], the EC50 on ComD2 receptor worked out at 317 nM; at ComD1 receptor, 81.7 nM. As to `CC[C@H](C)[C@H](NC(=O)[C@H](Cc1ccccc1)NC(=O)[C@H](CC(=O)O)NC(=O)[C@H](CCCNC(=N)N)NC(=O)[C@@H](NC(=O)[C@H](Cc1ccccc1)NC(=O)[C@H](CCCCN)NC(=O)[C@H](CO)NC(=O)[C@H](CC(C)C)NC(=O)[C@H](CCCNC(=N)N)NC(=O)[C@H](CCSC)NC(=O)[C@@H](N)CCC(=O)O)c1ccccc1)C(=O)N[C@@H](CC(C)C)C(=O)N[C@@H](CCC(N)=O)C(=O)N[C@@H](CCCNC(=N)N)C(=O)N[C@@H](CCCCN)C(=O)N[C@@H](CCCCN)C(=O)O` [CSP1-F8FG] (H-EMRLSKF[Phg]RDFILQRKK-OH; N-terminus assumed), the “ComD2 primary agonism screening: low induction, EC50 not determined” value at ComD2 receptor (TIGR4pcomX::lacZ, 10 µM peptide, only analogs with greater than 75% activation compared to CSP2 were taken to EC50) is reported as “–^e”. The compound further showed an EC50 at ComD1 receptor of 884 nM.

With `CC[C@H](C)[C@H](NC(=O)[C@H](Cc1ccccc1)NC(=O)[C@H](CC(=O)O)NC(=O)[C@H](CCCNC(=N)N)NC(=O)[C@H](CCc1ccccc1)NC(=O)[C@H](Cc1ccccc1)NC(=O)[C@H](CCCCN)NC(=O)[C@H](CO)NC(=O)[C@H](CC(C)C)NC(=O)[C@H](CCCNC(=N)N)NC(=O)[C@H](CCSC)NC(=O)[C@@H](N)CCC(=O)O)C(=O)N[C@@H](CC(C)C)C(=O)N[C@@H](CCC(N)=O)C(=O)N[C@@H](CCCNC(=N)N)C(=O)N[C@@H](CCCCN)C(=O)N[C@@H](CCCCN)C(=O)O` [CSP1-F8HF], the EC50 on ComD2 receptor was more than 1000 nM; at ComD1 receptor it was 43.4 nM. In the same order, the values of `CC[C@H](C)[C@H](NC(=O)[C@@H](NC(=O)[C@H](CC(=O)O)NC(=O)[C@H](CCCNC(=N)N)NC(=O)[C@H](Cc1ccccc1)NC(=O)[C@H](Cc1ccccc1)NC(=O)[C@H](CCCCN)NC(=O)[C@H](CO)NC(=O)[C@H](CC(C)C)NC(=O)[C@H](CCCNC(=N)N)NC(=O)[C@H](CCSC)NC(=O)[C@@H](N)CCC(=O)O)c1ccccc1)C(=O)N[C@@H](CC(C)C)C(=O)N[C@@H](CCC(N)=O)C(=O)N[C@@H](CCCNC(=N)N)C(=O)N[C@@H](CCCCN)C(=O)N[C@@H](CCCCN)C(=O)O` [CSP1-F11FG] (H-EMRLSKFFRD[Phg]ILQRKK-OH; N-terminus assumed) are more than 1000 nM and more than 1000 nM. Turning to `CC[C@H](C)[C@H](NC(=O)[C@H](CCc1ccccc1)NC(=O)[C@H](CC(=O)O)NC(=O)[C@H](CCCNC(=N)N)NC(=O)[C@H](Cc1ccccc1)NC(=O)[C@H](Cc1ccccc1)NC(=O)[C@H](CCCCN)NC(=O)[C@H](CO)NC(=O)[C@H](CC(C)C)NC(=O)[C@H](CCCNC(=N)N)NC(=O)[C@H](CCSC)NC(=O)[C@@H](N)CCC(=O)O)C(=O)N[C@@H](CC(C)C)C(=O)N[C@@H](CCC(N)=O)C(=O)N[C@@H](CCCNC(=N)N)C(=O)N[C@@H](CCCCN)C(=O)N[C@@H](CCCCN)C(=O)O` [CSP1-F11HF], the EC50 on ComD2 receptor is more than 1000 nM; at ComD1 receptor it was 65.8 nM. In the case of `CCCC[C@H](NC(=O)[C@H](Cc1ccccc1)NC(=O)[C@H](CC(=O)O)NC(=O)[C@H](CCCNC(=N)N)NC(=O)[C@H](Cc1ccccc1)NC(=O)[C@H](Cc1ccccc1)NC(=O)[C@H](CCCCN)NC(=O)[C@H](CO)NC(=O)[C@H](CC(C)C)NC(=O)[C@H](CCCNC(=N)N)NC(=O)[C@H](CCSC)NC(=O)[C@@H](N)CCC(=O)O)C(=O)N[C@@H](CC(C)C)C(=O)N[C@@H](CCC(N)=O)C(=O)N[C@@H](CCCNC(=N)N)C(=O)N[C@@H](CCCCN)C(=O)N[C@@H](CCCCN)C(=O)O` [CSP1-I12NL] (H-EMRLSKFFRDF[Nle]LQRKK-OH; N-terminus assumed), the EC50 at ComD2 receptor was more than 1000 nM; at ComD1 receptor it was 6.68 nM. As to `CCC[C@H](NC(=O)[C@H](Cc1ccccc1)NC(=O)[C@H](CC(=O)O)NC(=O)[C@H](CCCNC(=N)N)NC(=O)[C@H](Cc1ccccc1)NC(=O)[C@H](Cc1ccccc1)NC(=O)[C@H](CCCCN)NC(=O)[C@H](CO)NC(=O)[C@H](CC(C)C)NC(=O)[C@H](CCCNC(=N)N)NC(=O)[C@H](CCSC)NC(=O)[C@@H](N)CCC(=O)O)C(=O)N[C@@H](CC(C)C)C(=O)N[C@@H](CCC(N)=O)C(=O)N[C@@H](CCCNC(=N)N)C(=O)N[C@@H](CCCCN)C(=O)N[C@@H](CCCCN)C(=O)O` [CSP1-I12NV] (H-EMRLSKFFRDF[Nva]LQRKK-OH; N-terminus assumed), the EC50 on ComD2 receptor is 853 nM; at ComD1 receptor it was 13.8 nM. In the same order, the values of `CCCC[C@H](NC(=O)[C@H](CCCNC(=N)N)NC(=O)[C@H](CCSC)NC(=O)[C@@H](N)CCC(=O)O)C(=O)N[C@@H](CO)C(=O)N[C@@H](CCCCN)C(=O)N[C@@H](Cc1ccccc1)C(=O)N[C@@H](Cc1ccccc1)C(=O)N[C@@H](CCCNC(=N)N)C(=O)N[C@@H](CC(=O)O)C(=O)N[C@@H](Cc1ccccc1)C(=O)N[C@H](C(=O)N[C@@H](CC(C)C)C(=O)N[C@@H](CCC(N)=O)C(=O)N[C@@H](CCCNC(=N)N)C(=O)N[C@@H](CCCCN)C(=O)N[C@@H](CCCCN)C(=O)O)[C@@H](C)CC` [CSP1-L4NL] are more than 1000 nM and 13.5 nM. Regarding `CCC[C@H](NC(=O)[C@H](CCCNC(=N)N)NC(=O)[C@H](CCSC)NC(=O)[C@@H](N)CCC(=O)O)C(=O)N[C@@H](CO)C(=O)N[C@@H](CCCCN)C(=O)N[C@@H](Cc1ccccc1)C(=O)N[C@@H](Cc1ccccc1)C(=O)N[C@@H](CCCNC(=N)N)C(=O)N[C@@H](CC(=O)O)C(=O)N[C@@H](Cc1ccccc1)C(=O)N[C@H](C(=O)N[C@@H](CC(C)C)C(=O)N[C@@H](CCC(N)=O)C(=O)N[C@@H](CCCNC(=N)N)C(=O)N[C@@H](CCCCN)C(=O)N[C@@H](CCCCN)C(=O)O)[C@@H](C)CC` [CSP1-L4NV] (H-EMR[Nva]SKFFRDFILQRKK-OH; N-terminus assumed), the values for the concentration giving a half-maximal response (EC50) at ComD2 receptor and on ComD1 receptor were 627 nM and 5.74 nM, respectively. Take CSP1-F7Y (peptide): the EC50 of activation of pcomX::lacZ (β-galactosidase) in reporter strain D39pcomX::lacZ (group I, ComD1) in assay [1] worked out at 344 nM. The same measure, in the same setting: the figure for CSP1-F8FG (peptide) is 884 nM; for CSP1-F8Y (peptide) it is 85 nM; for CSP1-F11Y (peptide) it is 95.6 nM. Still for that read-out and setting: to CSP1-I12V (peptide) belongs 15.3 nM; to CSP1-L4V (peptide), 113 nM. With CSP1-L13V (peptide), the EC50 of activation of pcomX::lacZ (β-galactosidase) in reporter strain D39pcomX::lacZ (group I, ComD1) in assay [1] was determined as 31 nM. In assay [1], “competence stimulating peptide 1 (CSP1) (from UniProt P60242 25-41)” gave an EC50 of activation of pcomX::lacZ (β-galactosidase) in reporter strain D39pcomX::lacZ (group I, ComD1) of 10.3 nM.

As usually defined, the EC50 is the concentration needed to bring the measured effect to its halfway point. A high value points to a less potent agent.
